The assay addresses T1, serotonin 5-HT6 receptor subtype (Homo sapiens, UniProt P50406).
T1 construct: host or cells: CHO-Dukx-A2 cells, clone 50-7
As to the kind of experiment: 5-HT6 binding affinity ([3H]-LSD SPA binding). The settings on record: read-out: 5-HT6 binding Ki.
T1 sequence (P50406 whole entry): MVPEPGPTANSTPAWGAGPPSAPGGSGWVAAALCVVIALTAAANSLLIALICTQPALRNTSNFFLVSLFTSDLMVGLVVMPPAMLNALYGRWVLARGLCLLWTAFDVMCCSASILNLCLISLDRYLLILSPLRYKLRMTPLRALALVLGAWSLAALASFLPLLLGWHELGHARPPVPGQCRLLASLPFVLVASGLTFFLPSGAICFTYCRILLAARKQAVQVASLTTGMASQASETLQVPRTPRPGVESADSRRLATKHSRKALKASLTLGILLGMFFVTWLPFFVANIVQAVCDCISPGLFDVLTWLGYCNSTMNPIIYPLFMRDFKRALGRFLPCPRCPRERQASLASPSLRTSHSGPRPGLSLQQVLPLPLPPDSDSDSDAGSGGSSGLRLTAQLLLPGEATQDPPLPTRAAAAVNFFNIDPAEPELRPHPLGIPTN
Consider `Cc1nc2c(N3CCN[C@H](C)C3)cccc2n1S(=O)(=O)c1cccc2c(Cl)cccc12` [Example 127, 1-[(5-chloro-1-naphthyl)sulfonyl]-2-methyl-4-[(3R)-3-methylpiperazin-1-yl]-1H-benzimidazole], for which the Ki was found to be 8.38 nM.

Consider `CC1CN(c2cccc3c2ncn3S(=O)(=O)c2ccccc2)CCN1` (stereo not drawn) [Example 128, 4-(3-methylpiperazin-1-yl)-1-(phenylsulfonyl)-1H-benzimidazole], for which the Ki worked out at 0.931 nM.

For `CC1CN(c2cccc3c2ncn3S(=O)(=O)c2cccc3ccccc23)CCN1` (stereo not drawn) [Example 129, 4-(3-methylpiperazin-1-yl)-1-(1-naphthylsulfonyl)-1H-benzimidazole], the Ki stood at 0.051 nM.
